Source: EP0633316A1, “Lys-aminopeptidase PepN from lactobacillus delbruckii ssp. Lactis, nucleic acids coding for it, and its use in fermentation processes” (EUROPEAN ECONOMIC COMMUNITY E.E.C., priority 1993, dated 1995)
Where two headings read alike, the source gives them in different places. Non-standard residues stand in square brackets, D forms with d. Residues, ends and D or L forms follow the SMILES beside them. *: point of attachment. Sta = CC(C)C[C@H](N)[C@@H](O)CC(=O)O; pNA = O=[N+]([O-])c1ccc(N*)cc1; Isovaleryl = CC(C)CC(=O)*

T1: PepN (Lactobacillus delbrueckii subsp. lactis, UniProt P37896)
T1 construct: made in house; host or cells: E. coli CM89 (pepN-deficient) harbouring plasmid pUK13
T1 sequence (P37896 1-843): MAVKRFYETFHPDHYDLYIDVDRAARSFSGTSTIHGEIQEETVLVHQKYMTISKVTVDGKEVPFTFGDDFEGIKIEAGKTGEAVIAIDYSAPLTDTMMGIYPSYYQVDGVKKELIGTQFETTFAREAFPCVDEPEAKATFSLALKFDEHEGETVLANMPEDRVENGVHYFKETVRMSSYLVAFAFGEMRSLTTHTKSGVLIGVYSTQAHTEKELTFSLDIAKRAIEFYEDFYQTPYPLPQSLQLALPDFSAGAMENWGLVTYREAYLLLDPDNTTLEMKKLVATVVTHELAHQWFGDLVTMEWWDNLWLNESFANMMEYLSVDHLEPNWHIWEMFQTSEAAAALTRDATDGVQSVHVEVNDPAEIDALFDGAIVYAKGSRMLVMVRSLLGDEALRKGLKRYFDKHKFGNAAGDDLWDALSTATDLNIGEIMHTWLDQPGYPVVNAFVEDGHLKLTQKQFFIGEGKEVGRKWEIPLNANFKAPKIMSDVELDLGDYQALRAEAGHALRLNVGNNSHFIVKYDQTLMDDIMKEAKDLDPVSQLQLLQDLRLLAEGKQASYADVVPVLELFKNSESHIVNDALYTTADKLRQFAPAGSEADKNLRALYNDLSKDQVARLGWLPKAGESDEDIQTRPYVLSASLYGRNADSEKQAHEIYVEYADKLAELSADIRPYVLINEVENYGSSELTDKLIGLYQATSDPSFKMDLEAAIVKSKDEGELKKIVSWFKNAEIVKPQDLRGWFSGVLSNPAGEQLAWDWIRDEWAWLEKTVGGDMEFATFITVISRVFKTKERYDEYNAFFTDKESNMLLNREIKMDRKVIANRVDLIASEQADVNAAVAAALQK

B1: PepN (Lactobacillus delbrueckii subsp. lactis) (protein)
chain: T1 sequence (P37896 1-843)
notes: made in house; host or cells: E. coli CM89 (pepN-deficient) harbouring plasmid pUK13

Columns and labels:
Type in all cases: biochemical, Lactobacillus delbrückii ssp. lactis
PepN [1] = biological target: T1, PepN; experiment: Substrate specificity of purified PepN against p-nitroanilide substrates; conditions: p-nitroanilide substrates 1 mM, 10 min at 37°C, Tris-HCl 10 mM pH 8.0
Experimental: (§1) For characterization of the enzyme the p-nitroanilide subtrates (Bachem) were dissolved in water and added to the reaction mixture [Tris-HCl 10 mM, pH 8.0, and varying amounts of purified enzyme (1-200 ng)] to a concentration of 1 mM in a volume of 250 µl. Release of p-nitroaniline was measured after a 10 min incubation at 37°C at […] in a LKB Ultrospec plus spectrophotometer. For rapid screening of active fractions during purification of the enzyme, samples were prepared in micro titer plates and measured in a BIORAD model 2550 EIA reader.

PepN [2] = biological target: T1, PepN; experiment: biochemical; conditions: for activity at 1000 µM: read-out: relative activity
Experimental: The percentages of relative activity indicated above, correspond to residual activities after addition of the inhibitor as compared with the control without inhibitor. The conditions and methods for determination are taken from "Proteolytic enzymes, a practical approach, Beynon R.J. and Bond J.S., Oxford University Press 1989." (Chapter 4, Determination of protease mechanism, Ben M. Dunn).
as §1
To study the mechanism of enzyme action, the inhibitors phenylmethansulphonyl fluoride (PMSF) at a concentration of 1 mM, pepstatin A at 1 µg/ml, L-trans-epoxysuccinyl-leucylamide(4-guanidino)-butane (E-64) at 0.1 mM, and 1,10-phenanthroline or EDTA at 1 mM were added to the enzyme and incubated for 30 min at 37°C. The substrate lys-p-nitroanilide was added and activity was measured spectrophotometrically by the release of p-nitroaniline.

[3] = substrate: NCCCC[C@H](N)C(=O)Nc1ccc([N+](=O)[O-])cc1; experiment: Substrate specificity of purified PepN against p-nitroanilide substrates; conditions: other: Lineweaver-Burk plot; pH 8.0; 37.0 °C
Experimental: as §1

[4] = PMSF 1 mM, pepstatin A 1 µg/ml, E-64 0.1 mM, 1,10-phenanthroline or EDTA 1 mM, 30 min at 37°C, substrate lys-p-nitroanilide

Molecule | relative activity (%) (PepN [1]) | also measured
C[C@H](N)C(=O)N1CCC[C@H]1C(=O)Nc1ccc([N+](=O)[O-])cc1 [Ala-Pro-pNA] (H-Ala-Pro-pNA) | 0 | 
C[C@H](N)C(=O)Nc1ccc([N+](=O)[O-])cc1 [Ala-pNA] | 12 | 
CC(C)CC(NC(=O)C1OC1C(=O)O)C(=O)NCCCCN=C(N)N [E-64, L-trans-epoxysuccinyl-leucylamide(4-guanidino)-butane] |  | effect on enzyme activity (PepN [2]; [4]): no effect
O=C(O)CN(CCN(CC(=O)O)CC(=O)O)CC(=O)O [EDTA] |  | effect on enzyme activity (PepN [2]): full inhibition; activity at 1000 µM (PepN [2]): 3%
NCC(=O)Nc1ccc([N+](=O)[O-])cc1 [Gly-pNA] | 1 | 
CC(C)C[C@H](N)C(=O)Nc1ccc([N+](=O)[O-])cc1 [Leu-pNA] | 19 | 
NCCCC[C@H](N)C(=O)Nc1ccc([N+](=O)[O-])cc1 [Lys-pNA, lys-p-nitroanilide] | 100 | 
O=S(=O)(F)Cc1ccccc1 [PMSF, phenylmethansulphonyl fluoride] |  | effect on enzyme activity (PepN [2]; [4]): no effect
CC(C)CC(=O)N[C@H](C(=O)N[C@H](C(=O)N[C@@H](CC(C)C)[C@@H](O)CC(=O)N[C@@H](C)C(=O)N[C@@H](CC(C)C)[C@@H](O)CC(=O)O)C(C)C)C(C)C [Pepstatin A, pepstatin A] (Isovaleryl-VV[Sta]A[Sta]-OH) |  | effect on enzyme activity (PepN [2]; [4]): no effect
N[C@@H](Cc1ccccc1)C(=O)Nc1ccc([N+](=O)[O-])cc1 [Phe-pNA] | 8 | 
c1cnc2c(c1)ccc1cccnc12 [Phenanthroline, 1,10-phenanthroline] |  | effect on enzyme activity (PepN [2]; [4]): full inhibition; activity at 1000 µM (PepN [2]; end concentration 1 mM, residual activity after addition of the inhibitor compared with control without inhibitor): 4%
O=C(Nc1ccc([N+](=O)[O-])cc1)[C@@H]1CCCN1 [Pro-pNA] | 2 | 
N[C@@H](Cc1ccc(O)cc1)C(=O)Nc1ccc([N+](=O)[O-])cc1 [Tyr-pNA] | 2 | 
B1 |  | Km [3]: 70 µM
